{"source": "patent EP0377846A1", "about": "“Pharmaceutical mixture preparation containing nucleoside derivatives and pentosan polysulfate, and its manufacture and use” (HOECHST AKTIENGESELLSCHAFT, priority 1988, dated 1990)", "system": "HIV 1", "experiment": "Inhibition of HIV-induced syncytium formation in cultures of human lymphocytes (test of preparations against HIV in cell culture, microscopic reading on day 4 after infection)", "type": "cell-based", "settings": "Human immunodeficiency virus 1, 96 h, footnote of Tabelle 1, AZT alone, read-out: MHK-Wert", "description": "RPMI pH 6,8 Komplettes Medium enthält zusätzlich 20 % foetales Kälberserum und 20 IU/ml rekombinantes Interleukin 2.\nAus frischem Spenderblut mittels Ficoll^R-Gradientenzentrifugation isolierte Lymphozyten werden unter Zusatz von 2 µg/ml Phytohämagglutinin (Wellcome) in komplettem Medium 36 h bei 37°C unter 5 % CO₂ kultiviert. Die Zellen werden nach Zusatz von 10 % DMSO bei einer Zelldichte von 5 x 10⁶ eingefroren und in flüssigem Stickstoff gelagert. Für den Versuch werden die Zellen aufgetaut, in RPMI-Medium gewaschen und in komplettem Medium 3 - 4 Tage kultiviert.\nDie Prüfpräparate werden in komplettem Medium gelöst, üblicherweise in einer Konzentration von 1,2 mg/ml. In 24er Multiwell-Schalen werden jeweils 0,5 ml komplettes Medium gegeben. Nach Zusatz von 0,1 ml des gelösten Präparates wird durch Übertragung von jeweils 0,1 ml das Präparat in einer geometrischen Verdünnungsreihe, […], verdünnt. Zu allen Ansätzen werden 0,4 ml einer Suspension mit 5 x 10⁵ Lymphozyten pro ml gegeben.\nDie Ansätze werden mit 0,1 ml eines Überstandes von HIV 1 infizierten Lymphozyten versetzt, der so eingestellt ist, daß im Ansatz der cytopathogene Effekt nach 3 - 4 Tagen erkennbar ist. Die Multiplizität der infektiösen Einheit beträgt hierbei 0,01 - 0,02.\nDer Versuchsansatz enhält damit folgende Komponenten in komplettem Medium [formula] […]"}
{"smiles": "Cc1cn([C@H]2C[C@H](N=[N+]=[N-])[C@@H](CO)O2)c(=O)[nH]c1=O", "note": "[3′-Azido-3′-deoxythymidin]", "values": [{"measurement": "MIC", "value": 0.1, "unit": "µg/mL"}]}
